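Briefly, cells in 96-well plates were exposed to five compound concentrations for 48 h, and endpoints were estimated by linear interpolation. At the GI50, growth is halved.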 Active and inactive are the calls of the source. Rule as the data show it: active = GI50 up to about 1.1 µM and inactive = higher.
Tests used:
Assay in all cases: inhibition of tumour cell growth, NCI panel, 48 h
CAKI-1 = tested on: CAKI-1
DU-145 = tested on: DU-145
HCC 2998 = tested on: HCC 2998
HCT-15 = tested on: HCT-15
KM12 = tested on: KM12
M14 = tested on: M14
MDA-MB-231 = tested on: MDA-MB-231
MDA-MB-435 = tested on: MDA-MB-435
NCI-H23 = tested on: NCI-H23
OVCAR-3 = tested on: OVCAR-3
OVCAR-4 = tested on: OVCAR-4
OVCAR-8 = tested on: OVCAR-8
SF-295 = tested on: SF-295
SF-539 = tested on: SF-539
SK-MEL-28 = tested on: SK-MEL-28
SNB-19 = tested on: SNB-19
UACC-257 = tested on: UACC-257
UO-31 = tested on: UO-31
RXF 393 = tested on: RXF 393
SR = tested on: SR

Row | Compound | GI50 (CAKI-1) | GI50 (DU-145) | GI50 (HCC 2998) | GI50 (HCT-15) | GI50 (KM12) | GI50 (M14) | GI50 (MDA-MB-231) | GI50 (MDA-MB-435) | GI50 (NCI-H23) | GI50 (OVCAR-3) | GI50 (OVCAR-4) | GI50 (OVCAR-8) | GI50 (SF-295) | GI50 (SF-539) | GI50 (SK-MEL-28) | GI50 (SNB-19) | GI50 (UACC-257) | GI50 (UO-31) | GI50 (RXF 393) | GI50 (SR)
1 | COc1ccc2c(c1O)-c1c(OC)c(OC)cc3c1[C@H](C2)[N+](C)(C)CC3 | > 100 µM (inactive) | > 100 µM (inactive) | > 100 µM (inactive) | > 100 µM | > 100 µM (inactive) | > 100 µM (inactive) | > 100 µM (inactive) | > 100 µM (inactive) | > 100 µM (inactive) | > 100 µM (inactive) | > 100 µM (inactive) | > 100 µM (inactive) | > 100 µM (inactive) | > 100 µM (inactive) | > 100 µM (inactive) | > 100 µM (inactive) | > 100 µM (inactive) | > 100 µM (inactive) | – | –
2 | Cc1cc(C)nc(NC(=O)COc2ccc(Cl)cc2)c1 | > 100 µM (inactive) | > 100 µM (inactive) | – | > 100 µM | > 100 µM (inactive) | > 100 µM (inactive) | > 100 µM (inactive) | > 100 µM (inactive) | > 100 µM (inactive) | > 100 µM (inactive) | > 100 µM (inactive) | > 100 µM (inactive) | 84.9 µM (inactive) | > 100 µM (inactive) | > 100 µM (inactive) | > 100 µM (inactive) | > 100 µM (inactive) | – | 71.8 µM (inactive) | > 100 µM (inactive)
3 | CCOc1ccc(NCc2cc(OC)c(OC)c(OC)c2)cc1 | – | 3.15 µM (inactive) | 0.9 µM (active) | 0.303 µM | 0.319 µM (active) | 0.425 µM (active) | 1.57 µM (inactive) | – | 1.96 µM (inactive) | 0.388 µM (active) | 40.1 µM (inactive) | – | 0.417 µM (active) | 0.562 µM (active) | 2.99 µM (inactive) | 2.88 µM (inactive) | 19.7 µM (inactive) | 9.02 µM (inactive) | – | 0.288 µM (active)
4 | N#Cc1c(N)n(C2OC(CO)C(O)C2O)c2ncnc(N)c12 (stereo unspecified) | 0.0463 µM (active) | 0.112 µM (active) | – | 0.0277 µM | 0.0417 µM (active) | 0.0617 µM (active) | 0.0364 µM (active) | 0.0212 µM (active) | 0.0292 µM (active) | 0.029 µM (active) | 0.049 µM (active) | 0.014 µM (active) | 0.0711 µM (active) | 0.118 µM (active) | 0.119 µM (active) | 0.129 µM (active) | 0.091 µM (active) | 0.0847 µM (active) | 0.153 µM (active) | 0.0147 µM (active)
5 | CC(C)(C)[Si](C)(C)OCC1OC(n2ccc(=O)[nH]c2=O)C(O[Si](C)(C)C(C)(C)C)[C@@]12O[C@H]2C(N)=O (stereo partly specified) | 11.6 µM (inactive) | 4.03 µM (inactive) | 11.9 µM (inactive) | 5.38 µM | 7.67 µM (inactive) | 11.3 µM (inactive) | 4.61 µM (inactive) | 4.92 µM (inactive) | 12.2 µM (inactive) | 11.5 µM (inactive) | 18.5 µM (inactive) | 5.11 µM (inactive) | 4.56 µM (inactive) | 3.05 µM (inactive) | 17.6 µM (inactive) | 10.9 µM (inactive) | 26.2 µM (inactive) | 7.36 µM (inactive) | – | –
6 | O=C(COc1ccc(OCC(=O)N2C(=O)CS/C2=N\c2ccccc2)cc1)N1C(=O)CS/C1=N\c1ccccc1 | 20.6 µM (inactive) | 30.8 µM (inactive) | 14.9 µM (inactive) | 28.1 µM | 15.3 µM (inactive) | 18.6 µM (inactive) | 15.6 µM (inactive) | 23.7 µM (inactive) | 19.5 µM (inactive) | – | 33.5 µM (inactive) | – | 33.3 µM (inactive) | – | 5.6 µM (inactive) | 31.6 µM (inactive) | 23.7 µM (inactive) | 25.2 µM (inactive) | 30.3 µM (inactive) | –
7 | CCSc1nc(-c2cccs2)nc2ccc(I)cc12 | > 100 µM (inactive) | > 100 µM (inactive) | > 100 µM (inactive) | 89.9 µM | 72.8 µM (inactive) | > 100 µM (inactive) | – | > 100 µM (inactive) | > 100 µM (inactive) | 11.2 µM (inactive) | > 100 µM (inactive) | > 100 µM (inactive) | > 100 µM (inactive) | > 100 µM (inactive) | > 100 µM (inactive) | > 100 µM (inactive) | > 100 µM (inactive) | > 100 µM (inactive) | > 100 µM (inactive) | > 100 µM (inactive)
8 | COc1ccc(C2OC2C(=O)C23CC4CC(CC(C4)C2)C3)cc1 (stereo unspecified) | – | 90.8 µM (inactive) | 31 µM (inactive) | 41.4 µM | 96.8 µM (inactive) | > 100 µM (inactive) | 33 µM (inactive) | 48.6 µM (inactive) | 76 µM (inactive) | > 100 µM (inactive) | > 100 µM (inactive) | 38.3 µM (inactive) | 33.7 µM (inactive) | > 100 µM (inactive) | > 100 µM (inactive) | 33.3 µM (inactive) | 54.6 µM (inactive) | > 100 µM (inactive) | 37.6 µM (inactive) | –
9 | C=C1C(=O)O[C@H]2C1C[C@@H](OC(C)=O)/C(C)=C/CC[C@@]1(C)O[C@H]21 (stereo partly specified) | 9.18 µM (inactive) | 14.6 µM (inactive) | 13 µM (inactive) | 6.53 µM | 21.8 µM (inactive) | 0.687 µM (active) | – | 22.4 µM (inactive) | 15.1 µM (inactive) | – | 13 µM (inactive) | 16.1 µM (inactive) | 21.1 µM (inactive) | – | 10.7 µM (inactive) | 26 µM (inactive) | 1.34 µM (inactive) | 4.91 µM (inactive) | 6.53 µM (inactive) | 3.38 µM (inactive)
10 | NC(=O)C1CCCNC1 (stereo unspecified) | > 100 µM (inactive) | > 100 µM (inactive) | – | > 100 µM | > 100 µM (inactive) | > 100 µM (inactive) | > 100 µM (inactive) | > 100 µM (inactive) | > 100 µM (inactive) | > 100 µM (inactive) | > 100 µM (inactive) | > 100 µM (inactive) | > 100 µM (inactive) | > 100 µM (inactive) | > 100 µM (inactive) | > 100 µM (inactive) | – | > 100 µM (inactive) | > 100 µM (inactive) | > 100 µM (inactive)
11 | CCC1=C(c2ccc(OC)cc2)CC[C@@]2(CCNC2=O)[C@@H]1C | > 100 µM (inactive) | > 100 µM (inactive) | > 100 µM (inactive) | > 100 µM | > 94.2 µM (inactive) | > 100 µM (inactive) | > 100 µM (inactive) | > 61.4 µM (inactive) | > 43.2 µM (inactive) | > 100 µM (inactive) | > 100 µM (inactive) | > 100 µM (inactive) | > 55.2 µM (inactive) | > 100 µM (inactive) | > 100 µM (inactive) | > 100 µM (inactive) | 28.2 µM (inactive) | > 96.2 µM (inactive) | – | 24.7 µM (inactive)
12 | Cc1cc2c3c([nH]c2c2ccnc(C)c12)CCCC3 | – | 3.23 µM (inactive) | 1.95 µM (inactive) | 1.86 µM | 2.7 µM (inactive) | 1.9 µM (inactive) | 1.69 µM (inactive) | 1.88 µM (inactive) | 2.86 µM (inactive) | 2.14 µM (inactive) | 2.24 µM (inactive) | 2.18 µM (inactive) | 2.12 µM (inactive) | 1.85 µM (inactive) | 1.76 µM (inactive) | – | 1.81 µM (inactive) | 2.05 µM (inactive) | – | 1.93 µM (inactive)
13 | COc1ccc2c(c1)N=C1CSC(c3cccc(Br)c3)N1C2 (stereo unspecified) | 6.19 µM (inactive) | – | 6.43 µM (inactive) | 6.14 µM | 10.9 µM (inactive) | 16.6 µM (inactive) | 17.8 µM (inactive) | 10.5 µM (inactive) | 17.9 µM (inactive) | – | 15.9 µM (inactive) | 23.7 µM (inactive) | 14.2 µM (inactive) | 17.9 µM (inactive) | 32.8 µM (inactive) | 22.5 µM (inactive) | 10.5 µM (inactive) | 12.6 µM (inactive) | 14.6 µM (inactive) | 4.52 µM (inactive)
14 | CSc1c(CC(=O)O)n(Cc2ccccc2)c2ccccc12 | > 100 µM (inactive) | > 100 µM (inactive) | – | 74.5 µM | > 100 µM (inactive) | > 100 µM (inactive) | > 100 µM (inactive) | > 100 µM (inactive) | > 100 µM (inactive) | > 100 µM (inactive) | 61.7 µM (inactive) | > 100 µM (inactive) | 79.8 µM (inactive) | > 100 µM (inactive) | > 100 µM (inactive) | > 100 µM (inactive) | > 100 µM (inactive) | > 100 µM (inactive) | > 100 µM (inactive) | > 100 µM (inactive)
15 | CC1=CC(=O)/C(=C/NC(N)=S)C(=O)O1 | > 100 µM (inactive) | > 100 µM (inactive) | > 100 µM (inactive) | 98.4 µM | > 100 µM (inactive) | > 100 µM (inactive) | > 100 µM (inactive) | > 100 µM (inactive) | > 100 µM (inactive) | > 100 µM (inactive) | > 100 µM (inactive) | > 100 µM (inactive) | > 100 µM (inactive) | > 100 µM (inactive) | – | 97.1 µM (inactive) | > 100 µM (inactive) | 38.5 µM (inactive) | 1.05 µM (active) | –
16 | NS(=O)(=O)c1ccc(Nc2c3ccccc3nc3c(C(=O)NCCCN(CCO)CCO)cccc23)cc1 | > 100 µM (inactive) | 29.9 µM (inactive) | 17.7 µM (inactive) | > 100 µM | 16.7 µM (inactive) | 24.2 µM (inactive) | 61.1 µM (inactive) | 19.6 µM (inactive) | 23.4 µM (inactive) | 24.3 µM (inactive) | 31.3 µM (inactive) | 28.6 µM (inactive) | 36.2 µM (inactive) | – | 22.4 µM (inactive) | 15.2 µM (inactive) | 31 µM (inactive) | > 100 µM (inactive) | – | 12.8 µM (inactive)

Source: ChEMBL document CHEMBL1201862, “PubChem BioAssay data set” (2004)
